We go through 18 compounds from patent US11396517B1, “Exo-aza spiro inhibitors of menin-MLL interaction” (Janssen Pharmaceutica NV, priority 2017, dated 2022).

One experiment relates to MV-4-11. The experiment is described as follows: Proliferation assay A (spheroid assay) MV-4-11. In kind it is cell-based, human. To be noted: MV-4-11 cells, 8 d, AUC of confluence against time, absolute IC50, read-out: (3a) Spheroid assay MV-4-11 (IC50(μM)) Assay A. As for the experimental part: 3a) Proliferation Assay A
The anti-proliferative effect of menin/MLL protein/protein interaction inhibitor test compounds was assessed in human leukemia cell lines. The cell lines MV-4-11 and MOLM14 harbor MILL translocations and express the MILL fusion proteins MLL-AF4 and MLL-AF9, respectively, as well as the wildtype protein from the second allele. […] K562 was used as a control cell line containing two MLL wildtype alleles in order to exclude compounds that display general cytotoxic effects.
MV-4-11 and MOLM14 were cultured in RPMI-1640 (Sigma Aldrich) supplemented with 10% fetal bovine serum (HyClone), 2 mM L-glutamine (Sigma Aldrich) and 50 μg/ml gentamycin (Gibco). K562 were propagated in RPMI-1640 (Sigma Aldrich) supplemented with 20% fetal bovine serum (HyClone), 2 mM L-glutamine (Sigma Aldrich) and 50 μg/ml gentamycin (Gibco).
In order to assess the anti-proliferative effects, 1,500 MV-4-11, 300 MOLM14 or 750 K562 cells were seeded in 200 μl media per well in 96-well round bottom, ultra-low attachment plates (Costar, catalogue number 7007). Cell seeding numbers were chosen based on growth curves to ensure linear growth throughout the experiment. Test compounds were added at different concentrations and the DMSO content was normalized to 0.3%. Cells were incubated for 8 d at 37° C. and 5% CO2. Spheroid like growth was monitored in real-time by live-cell imaging (IncuCyteZOOM, Essenbio, 4× objective) acquiring one image every four hours for 8 d. Confluence (%) as a measure of spheroid size was determined using an integrated analysis tool.
In order to determine the cumulative effect of the test compounds over time, the area under the curve (AUC) in a plot of confluence against time was calculated. Confluence at the beginning of the experiment (t=0) was used as baseline for the AUC calculation.
Absolute IC50 values were calculated according to the following procedure: % Control=(AUC sample/AUC control)*100
AUC control mean AUC of control values (cells without compound/DMSO as vehicle control)
A non-linear curve fit was applied using the least squares (ordinary) fit method to the plot of % control versus compound concentration. Based on this, the absolute IC50 value (half maximal inhibitory concentration of the test compound causing an anti-proliferative effect of 50% relative to the vehicle control) was calculated.

The target in the next experiment is T1, menin (Homo sapiens, UniProt O00255, T541A).
T1 construct: Menin (a.a. 1-610-6×his tag)
T1 sequence (O00255 with tags, fused parts or gaps T541A): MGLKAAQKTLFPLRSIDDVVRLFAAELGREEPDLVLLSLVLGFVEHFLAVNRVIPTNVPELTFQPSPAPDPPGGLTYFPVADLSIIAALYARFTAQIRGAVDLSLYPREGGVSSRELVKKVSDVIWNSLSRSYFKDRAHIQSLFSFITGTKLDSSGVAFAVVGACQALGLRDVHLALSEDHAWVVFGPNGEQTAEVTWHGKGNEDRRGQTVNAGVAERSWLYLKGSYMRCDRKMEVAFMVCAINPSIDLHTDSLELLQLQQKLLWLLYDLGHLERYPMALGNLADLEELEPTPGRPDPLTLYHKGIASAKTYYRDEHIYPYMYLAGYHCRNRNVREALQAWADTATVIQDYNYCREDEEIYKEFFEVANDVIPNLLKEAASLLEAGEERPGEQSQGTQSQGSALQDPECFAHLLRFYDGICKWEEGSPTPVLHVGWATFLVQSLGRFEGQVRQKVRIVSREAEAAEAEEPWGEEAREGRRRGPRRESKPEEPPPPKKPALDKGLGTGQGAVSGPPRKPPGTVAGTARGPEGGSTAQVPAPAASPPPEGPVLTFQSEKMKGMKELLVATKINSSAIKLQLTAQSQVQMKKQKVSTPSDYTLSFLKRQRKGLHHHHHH
The experiment can be described thus: Menin/MLL homogenous time-resolved fluorescence (HTRF) assay. Conditions: location 2; read-out: (2) location 2 Menin HTRF assay (IC50 (nM)). It is filed as binding. An outline of the steps:
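Terbium-labeled menin (aa 1-610, His-tagged; […]) preincubated 5 min with compound, then 75 nM FITC-MBM1 peptide for 15 min, ambient, Tris pH 7.5, 0.5% DMSO. HTRF 520/490 ratio; 11-point 3-fold titration; IC50 from % inhibition fit.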
(Time-resolved FRET reads energy transfer from a long-lived donor to a nearby acceptor.)

In the next experiment the test system is MOLM14. The experiment is described as follows: Proliferation assay B (spheroid assay) MOLM14. It is filed as cell-based, human. Conditions: MOLM14 cells, confluence at day 8, absolute IC50, read-out: (3b) Spheroid assay MOLM14 (IC50(μM)) Assay B. An outline of the steps:
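Leukemia cells grown as spheroids in ultra-low-attachment round-bottom wells with compound at 0.3% DMSO for 8 d at 37 °C. Confluence imaged at day 8 as spheroid size, normalized between DMSO and 1 μM staurosporine controls; absolute IC50 from sigmoidal fit with bounds fixed at 0 and 100%.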

The structures appear in SMILES notation. Like-named read-outs stand apart in the source and are kept apart here.

What is called IC50 is the concentration that inhibits the measured activity by half.

In the case of `COc1cc(NC2CC3(CCN(c4ncnc5sc(CC(F)(F)F)cc45)C3)C2)ccn1` (mixture of isomers) [Compound 341], the IC50 with MV-4-11 (Homo sapiens, MV4-11, 192 h) came out at 0.84 µM; at menin, 50.3 nM; with MOLM14 (Homo sapiens, MOLM-14, 192 h), 3.03 µM.

`CNC(=O)c1ccc(NC2CC3(CCN(c4ncnc5sc(CC(F)(F)F)cc45)C3)C2)cc1` (single isomer, unassigned) [Compound 95]: the IC50 with MV-4-11 is 1.27 µM; on menin, 34.6 nM; in the experiment with MOLM14, 0.82 µM.

`O=c1[nH]c2ccc(N[C@@H]3CCC4(C3)CN(c3ncnc5sc(CC(F)(F)F)cc35)C4)cc2[nH]1` (single isomer, unassigned) [Compound 299]: the 50% inhibitory concentration (IC50) with MV-4-11 (Homo sapiens, MV4-11, 192 h) was above 3.75 µM; on menin, 94.8 nM.

For the compound `CNS(=O)(=O)c1ccc(NC2CC3(CCN(c4ncnc5sc(CC(F)(F)F)cc45)C3)C2)cc1` (single isomer, unassigned) [Compound 318], the IC50 was 0.6 µM in the experiment on MV-4-11 (Homo sapiens, MV4-11, 192 h); 8.1 nM on menin; 3.07 µM in the experiment on MOLM14 (Homo sapiens, MOLM-14, 192 h).

Regarding `O=c1[nH]c2ccc(NC3CC4(CCN(c5ncnc6sc(CC(F)(F)F)cc56)C4)C3)cc2[nH]1` (single isomer, unassigned) [Compound 320], the IC50 turned out to be 3.71 µM in the experiment on MV-4-11 (Homo sapiens, MV4-11, 192 h) and 41.6 nM at menin.

Take `O=c1[nH]c2ccc(NC3CC4(CCN(c5ncnc6sc(CC(F)(F)F)cc56)C4)C3)cc2[nH]1` (single isomer, unassigned) [Compound 321]: the concentration for half-maximal inhibition (IC50) with MV-4-11 was above 3.75 µM; on menin it was 915 nM.

`O=c1[nH]c2ccc(NC3CC4(CCN(c5ncnc6sc(CC(F)(F)F)cc56)C4)C3)cc2o1` (single isomer, unassigned) [Compound 323]: the concentration for half-maximal inhibition (IC50) in the experiment with MV-4-11 (Homo sapiens, MV4-11, 192 h) is 3.66 µM; at menin, 26.4 nM.

Take `N#CCc1ccc(NC2CC3(CCN(c4nc(N)nc5sc(CC(F)(F)F)cc45)C3)C2)cc1` (single isomer, unassigned) [Compound 378]: the IC50 was above 3.75 µM in the experiment on MV-4-11 (Homo sapiens, MV4-11, 192 h) and 42.9 nM at menin.

On to `Nc1nc(N2CCC3(CC(Nc4ccc5[nH]c(=O)oc5c4)C3)C2)c2cc(CC(F)(F)F)sc2n1` (single isomer, unassigned) [Compound 385], for which the values for the concentration for half-maximal inhibition (IC50) in the experiment with MV-4-11 and on menin were above 3.75 µM and 27.2 nM, respectively.

Consider `FC(F)(F)Cc1cc2c(N3CC4(CCC(Nc5ccccc5)C4)C3)ncnc2s1` (stereo not drawn) [Compound 7], for which the half-inhibitory concentration (IC50) came to 13.5 µM in the experiment with MV-4-11 (Homo sapiens, MV4-11, 192 h) and 658 nM at menin.

For the compound `CS(=O)(=O)Nc1ccc(C(=O)NC2CC3(CCN(c4ncnc5sc(CC(F)(F)F)cc45)C3)C2)cc1` (stereo not drawn) [Compound 27], the concentration for half-maximal inhibition (IC50) was 11.9 µM in the experiment on MV-4-11 (Homo sapiens, MV4-11, 192 h) and 585 nM on menin.

On to `FC(F)(F)Cc1cc2c(N3CCC4(CC(CNc5ccccc5)C4)C3)ncnc2s1` (stereo not drawn) [Compound 38], for which the IC50 with MV-4-11 (Homo sapiens, MV4-11, 192 h) is 5.21 µM; on menin, 447 nM.

Consider `CN(CC1CC2(CCN(c3ncnc4sc(CC(F)(F)F)cc34)C2)C1)c1ccccc1` (stereo not drawn) [Compound 41], for which the IC50 is 10 µM with MV-4-11 (Homo sapiens, MV4-11, 192 h) and 339 nM on menin.

On to `Cn1c(=O)[nH]c2cc(NC3CC4(CCN(c5ncnc6sc(CC(F)(F)F)cc56)C4)C3)ccc21` (stereo not drawn) [Compound 89], for which the half-inhibitory concentration (IC50) was 2.73 µM in the experiment with MV-4-11 (Homo sapiens, MV4-11, 192 h) and 27.8 nM at menin.

Turning to `FC(F)(F)Cc1cc2c(N3CCC4(CC(Nc5ccc(-c6cc[nH]n6)cc5)C4)C3)ncnc2s1` (stereo not drawn) [Compound 92], the half-inhibitory concentration (IC50) in the experiment on MV-4-11 (Homo sapiens, MV4-11, 192 h) was determined as 0.48 µM; on menin, 5.3 nM.

For `O=C1Cc2ccc(NC3CCC4(C3)CN(c3ncnc5sc(CC(F)(F)F)cc35)C4)cc2N1` (stereo not drawn) [Compound 292], the IC50 is above 3.75 µM in the experiment with MV-4-11 (Homo sapiens, MV4-11, 192 h) and 81.3 nM on menin.

For the compound `FC(F)(F)Cc1cc2c(N3CC4(CCC(Nc5ccc(-c6cc[nH]n6)cc5)C4)C3)ncnc2s1` (stereo not drawn) [Compound 301], the IC50 with MV-4-11 (Homo sapiens, MV4-11, 192 h) is 1.76 µM; at menin, 32.3 nM.

As for `FC(F)(F)Cc1cc2c(N3CC4(CCC(Nc5ccc(-c6cn[nH]c6)cc5)C4)C3)ncnc2s1` (stereo not drawn) [Compound 302], the 50% inhibitory concentration (IC50) in the experiment on MV-4-11 (Homo sapiens, MV4-11, 192 h) was 2.56 µM; on menin, 509 nM.
